Source: PubChem BioAssay AID1397 (The Scripps Research Institute Molecular Screening Center, 2008)
pEC50: −log10 of the molar value. Calls of active or inactive are those of the source.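 The calls were made as follows: active = potency EC50 for STAT1 activation at or below 10 micromolar; inactive = EC50 above 10 micromolar.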

Tested on: NIH 3T3 STAT1-luciferase reporter, luminescence
Test: STAT1 signalling activators, dose response, cell-based, NIH 3T3, luciferase luminescence (AID 1397)
[1] = cells stimulated with IFN-gamma at EC80

| SMILES | pEC50 [1] | EC50 [1] | pEC50 |
| --- | --- | --- | --- |
| CCCCCNc1nc(-c2ccccc2)cs1 | 6.07 | – | – |
| Nc1ncc(-c2cc3ccccc3oc2=O)s1 | – | > 687 nM (inactive) | – |
| O=C(CCc1nnc(CCCc2ccccc2)o1)N1CCCCCC1 | 5.11 | – | – |
| O=C(Cn1cnc2ccccc2c1=O)c1ccc(Cl)cc1 | 5.09 | – | – |
| COc1ccc(N/C=C\C(=O)c2ccc3c(c2)OCO3)cc1OC | 5.54 | – | – |
| CCCCOC(=O)Nc1nc2ccccc2s1 | 6.13 | – | – |
| O=C(/C(C=Nc1ccc(F)cc1)=C(/O)c1ccco1)C(F)(F)F | – | > 687 nM (inactive) | – |
| CC(=O)c1cccc(NC(=S)NC(=O)c2cccc(C)c2)c1 | 5.72 | – | – |
| O=C(/C=C/Nc1ccccc1F)c1ccc(Br)cc1 | – | > 76 nM (inactive) | – |
| COc1ccc2nc(Nc3nc(C)c(C(C)=O)s3)sc2c1 | 5.67 | – | – |
| Fc1ccc2nc(Nc3nc4cc5c(cc4s3)OCCO5)sc2c1 | 5.89 | – | – |
| CCc1ccc(Nc2ncc3c(n2)CC(C)CC3=O)cc1 (stereo not drawn) | 6.12 | – | – |
| O=C(Nc1ccc2c(c1)OCCO2)c1ccc(Br)s1 | – | > 229 nM (inactive) | – |
| CC(=O)Nc1ccc(-c2csc(Nc3cccc(C)n3)n2)cc1 | 5.78 | – | – |
| c1ccc(CNc2ccc3ccccc3n2)nc1 | – | > 687 nM (inactive) | – |
| Cc1cc(C(=O)NCCC2=CCCCC2)c(C)o1 | – | > 229 nM (inactive) | – |
| COc1ccc(/C=C/C(=O)Nc2ccccc2)cc1OC | 5.29 | – | – |
| COc1cc(NC(=O)c2csc3c2CCCC3)ncn1 | 5.92 | – | – |
| O=C(/C(C=Nc1ccc(Br)cc1)=C(/O)c1ccco1)C(F)(F)F | – | > 685 nM (inactive) | – |
| COc1ccc2nc(Nc3ccc4c(c3)OCO4)sc2c1 | 5.51 | – | – |
| Cc1nc(-c2ccc(NC(=O)c3ccccc3C)cc2)cs1 | 5.73 | – | – |
| O=C(Nc1cccc(Cl)c1)c1ccc2c(=O)n3c(nc2c1)CCCCC3 | 6.09 | – | – |
| COc1ccc(-c2csc(N3C(=O)CNC3=S)n2)cc1 | 7.06 | – | – |
| C/C(=C\c1ccccc1)C(=O)Nc1nccs1 | 5.68 | – | – |
| Cc1ccc(/C=C/C(=O)Nc2ccccc2C(N)=O)cc1 | – | > 687 nM (inactive) | – |
| O=C(NCCC1=CCCCC1)c1ccc(F)cc1 | – | > 687 nM (inactive) | – |
| Cc1nc(-c2ccc(NC(=O)c3ccccc3Br)cc2)cs1 | 5.59 | – | – |

| SMILES | pEC50 [1] | EC50 [1] | pEC50 |
| --- | --- | --- | --- |
| COc1ccc(Nc2oc(-c3cccs3)nc2C#N)cc1 | 5.49 | – | – |
| O=C(/C=C/c1ccc(F)cc1)Nc1nc2ccccc2[nH]1 | 6.04 | – | – |
| C=CCn1c(C)cc(C(=O)CSc2nc3ccccc3o2)c1C | – | > 229 nM (inactive) | – |
| Nc1nc2ccc(-c3nc4ccccc4o3)cc2s1 | 6.29 | – | – |
| c1cncc(-c2nc3cc4ccccc4cc3[nH]2)c1 | 6.48 | – | – |
| COc1ccc(NC(=S)Nc2ccc3nccnc3c2)cc1 | – | 13300 nM (inactive) | – |
| Nc1ccccc1C(=O)OCC(=O)N1CCc2ccccc21 | – | – | 5.65 |
| Fc1ccccc1CSc1nnc(-c2cccnc2)o1 | 5.34 | – | – |
| Cc1cccc(Nc2n[nH]c(C)c2[N+](=O)[O-])c1 | 5.91 | – | – |
| CC(=O)Nc1cccc(-c2cnc3ccccc3n2)c1 | 5.41 | – | – |
| Cc1ccc(C(=O)/C=C/Nc2cccc([N+](=O)[O-])c2)o1 | 5.86 | – | – |
| CC(C)Oc1ccc2c(=O)c(-c3ccccc3)coc2c1 | 6.38 | – | – |
| CCOc1ccc2nc(N3CCOCC3)nc(C)c2c1 | 5.64 | – | – |
| C=CCNC(=O)c1cc(-c2ccc(Br)cc2)on1 | 6.08 | – | – |
| CCc1c(C)[nH]c(C(=O)OCc2ccccc2)c1C | 5.16 | – | – |
| c1csc(C2=NNC(=NC3CCCCC3)SC2)c1 | – | > 688 nM (inactive) | – |
| CN1C(=O)/C(=C/C=C2\SCCN2C)SC1=S | 6.38 | – | – |
| Cc1occc1C(=O)Nc1ccc2c(c1)CCC2 | 5.80 | – | – |
| CCOC(=O)CSc1nc(-c2ccncc2)ccc1C#N | 5.92 | – | – |
| Cc1ccc(NC(=O)Nc2ccc3oc(C)nc3c2)cc1 | 5.78 | – | – |
| Cc1nc2ccc3nc(NC(=O)c4ccco4)sc3c2s1 | – | 11000 nM (inactive) | – |
| N#C/C(=C\c1ccc(N2CCOCC2)o1)c1nc2ccccc2[nH]1 | – | > 76 nM (inactive) | – |
| Cc1ccc(C(=O)Nc2nc3c(s2)CCCC3)o1 | – | > 229 nM (inactive) | – |
| CCOC(=O)/C(C#N)=C/c1cc(C)n(-c2ccccc2)c1C | 7.16 | – | – |
| COc1ccc2[nH]c3c(c2c1)CCn1c-3nc2ccccc2c1=O | – | > 76 nM (inactive) | – |
| Cc1ccc2nc(NC(=O)CCn3cccc3)sc2c1 | 5.16 | – | – |
